# Laboratory results published in ChEMBL document CHEMBL1201862, “PubChem BioAssay data set” (2004).
#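 Tested at 5 concentrations; 48 h exposure; 96-well plates; endpoints linearly interpolated, else capped at highest concentration. GI50 = concentration required for 50% inhibition of growth.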 The source made the active and inactive calls. No stated cut-off is given here; in the data, active = GI50 up to about 1.1 µM and inactive = higher.
# Key:
# Assay in all cases: DTP human tumour cell line panel, 48 h
# Hs-578T = system: Hs-578T
# COLO 205 = system: COLO 205
# SK-MEL-5 = system: SK-MEL-5
# MDA-N = system: MDA-N
# ACHN = system: ACHN
# K562 = system: K562
# HCC 2998 = system: HCC 2998
# SR = system: SR
# SF-295 = system: SF-295
# HL-60 = system: HL-60
# MDA-MB-231 = system: MDA-MB-231
# LOX IMVI = system: LOX IMVI
# SNB-19 = system: SNB-19
# M14 = system: M14
# NCI-H460 = system: NCI-H460
# SF-539 = system: SF-539
# SF-268 = system: SF-268
# TK-10 = system: TK-10
# HCT-15 = system: HCT-15
# NCI-H522 = system: NCI-H522
# EKVX = system: EKVX
# U-251 = system: U-251
# HT-29 = system: HT-29
# HCT-116 = system: HCT-116
# 786-0 = system: 786-0
# OVCAR-3 = system: OVCAR-3
# Malme-3M = system: Malme-3M
# OVCAR-5 = system: OVCAR-5
# OVCAR-4 = system: OVCAR-4
# RXF 393 = system: RXF 393
# SK-MEL-2 = system: SK-MEL-2
# UACC-257 = system: UACC-257
# MDA-MB-435 = system: MDA-MB-435
# OVCAR-8 = system: OVCAR-8
# RPMI-8226 = system: RPMI-8226
# BT-549 = system: BT-549
# SN12C = system: SN12C
# IGROV-1 = system: IGROV-1
# DU-145 = system: DU-145
# UO-31 = system: UO-31
# CAKI-1 = system: CAKI-1
# NCI-H23 = system: NCI-H23
# HOP-92 = system: HOP-92
# UACC-62 = system: UACC-62
# A549 = system: A549
# T47D = system: T47D
# KM12 = system: KM12
# NCI/ADR-RES = system: NCI/ADR-RES
# MOLT-4 = system: MOLT-4
# SK-MEL-28 = system: SK-MEL-28
# SW-620 = system: SW-620
# NCI-H226 = system: NCI-H226
# PC-3 = system: PC-3
# CCRF-CEM = system: CCRF-CEM
# MCF7 = system: MCF7
# SK-OV-3 = system: SK-OV-3
# A498 = system: A498
# HOP-62 = system: HOP-62
compound,measurement,setting,value
CCN(CC)CCOc1ccc(N2Cc3cc(OC)c(OC)cc3C2=O)cc1,GI50,Hs-578T,> 100 µM (inactive)
same,GI50,COLO 205,> 100 µM (inactive)
same,GI50,SK-MEL-5,> 100 µM (inactive)
same,GI50,MDA-N,> 100 µM (inactive)
same,GI50,ACHN,> 100 µM (inactive)
same,GI50,K562,> 100 µM (inactive)
same,GI50,HCC 2998,> 100 µM (inactive)
same,GI50,SR,> 100 µM (inactive)
same,GI50,SF-295,> 100 µM (inactive)
same,GI50,HL-60,> 100 µM (inactive)
same,GI50,MDA-MB-231,> 100 µM (inactive)
same,GI50,LOX IMVI,> 100 µM (inactive)
same,GI50,SNB-19,> 100 µM (inactive)
same,GI50,M14,> 100 µM (inactive)
same,GI50,NCI-H460,> 100 µM (inactive)
same,GI50,SF-539,> 100 µM (inactive)
same,GI50,SF-268,> 100 µM (inactive)
same,GI50,TK-10,> 100 µM (inactive)
same,GI50,HCT-15,> 100 µM
same,GI50,NCI-H522,> 100 µM (inactive)
same,GI50,EKVX,> 100 µM (inactive)
same,GI50,U-251,> 100 µM (inactive)
same,GI50,HT-29,> 100 µM (inactive)
same,GI50,HCT-116,> 100 µM (inactive)
same,GI50,786-0,> 100 µM (inactive)
same,GI50,OVCAR-3,> 100 µM (inactive)
same,GI50,Malme-3M,> 100 µM (inactive)
same,GI50,OVCAR-5,> 100 µM (inactive)
same,GI50,OVCAR-4,> 100 µM (inactive)
same,GI50,RXF 393,> 100 µM (inactive)
same,GI50,SK-MEL-2,> 100 µM (inactive)
same,GI50,UACC-257,> 100 µM (inactive)
same,GI50,MDA-MB-435,> 100 µM (inactive)
same,GI50,OVCAR-8,> 100 µM (inactive)
same,GI50,RPMI-8226,> 100 µM (inactive)
same,GI50,BT-549,> 100 µM (inactive)
same,GI50,SN12C,> 100 µM (inactive)
same,GI50,IGROV-1,> 100 µM (inactive)
same,GI50,DU-145,> 100 µM (inactive)
same,GI50,UO-31,< 0.01 µM (active)
same,GI50,CAKI-1,> 100 µM (inactive)
same,GI50,NCI-H23,> 100 µM (inactive)
same,GI50,HOP-92,> 100 µM (inactive)
same,GI50,UACC-62,> 100 µM (inactive)
same,GI50,A549,> 100 µM (inactive)
same,GI50,T47D,> 100 µM (inactive)
same,GI50,KM12,> 100 µM (inactive)
same,GI50,NCI/ADR-RES,> 100 µM (inactive)
same,GI50,MOLT-4,> 100 µM (inactive)
same,GI50,SK-MEL-28,> 100 µM (inactive)
same,GI50,SW-620,> 100 µM (inactive)
same,GI50,NCI-H226,> 100 µM (inactive)
same,GI50,PC-3,> 100 µM (inactive)
same,GI50,CCRF-CEM,> 100 µM (inactive)
same,GI50,MCF7,> 100 µM (inactive)
same,GI50,SK-OV-3,> 100 µM (inactive)
same,GI50,A498,> 100 µM (inactive)
same,GI50,HOP-62,> 100 µM (inactive)
